Measurements from US20070072954A1, “Novel tetraoxaspiroalkanes and methods of use with organosilicon monomers in polyerizable compositions” (Curators of the University of Missouri, priority 2005, published 2007).
Marks after values point to notes of the source that are not given here.

Tests used:
Type in all cases: physicochemical
[1] = Oxirane ring-opening (oxirane conversion) via FTIR; details: thin film, 10 min irradiation
Description: In this example, the oxirane ring-opening of monomers 1 (DEBAOM-1,5,7,11-TOSU) or 6 (DEBTMSPOM-1,5,7,11-TOSU) was investigated using FTIR. All FTIR spectra were acquired using a Perkin-Elmer BX II FTIR spectrophotometer. The identification of the location of the oxirane absorption band in the IR spectrum of Siloranes was achieved by methanolysis. A sample was dissolved in CH2Cl2 and exposed to CH30H in the presence of a catalytic amount of zinc tetrafluoroborate hydrate overnight. The mixture was evaporated onto a salt plate. An FTIR spectrum was acquired and compared to pre-exposure spectrum. There was a significant decrease in the oxirane absorption region at 882-886 cm^−1. This band was selected as the absorption to monitor for following the oxirane ring-opening reaction.
Analytical samples contained siloranes I, II, or SIL-MIX with and without 50 mol % of monomer 1 (DEBAOM-1,5,7,11-TOSU) or 6 (DEBTMSPOM-1,5,7,11-TOSU). A thin film was brushed onto a salt plate. Irradiation (10 minutes at 23 to 25° C. and R. H.=40-45%) was provided by a 3M XL2500 curing light positioned 1-cm above the sample surface. The light intensity was measured at 360 mW/cm^2 on the sample surface. The oxirane band absorption and an internal reference band absorption were assessed before and after irradiation. Oxirane conversion (alpha) was calculated according to equation (1) by Pan et al., Polym Int 2000, 49, 74. [formula] where subscripts 0 and t represent pre-irradiation and post-irradiation respectively.

[2] = Photopolymerization stress measurement (tensilometer)
Description: In this example, the photopolymerization stress of the monomers of the present invention was investigated. Stress generated during photopolymerization was measured (n=3) using an electromagnetic mechanical testing machine (Enduratec Model 3200, Bose Corp., Minnetonka, Minn.) adapted to be a tensilometer. See Feilzer et al., Dent. Mater. […] Briefly, two identical glass rods, 5 mm in diameter, were placed opposing one another and separated by 1 mm (C-factor=2.5). A displacement transducer (LVDT, Enduratec, 0.1 μm resolution, range ±1 mm) was mounted on one glass rod and was touching a plate attached to the opposing glass rod. The distance between the mounts on the opposing glass rods was about 9 mm (including the 1 mm separation between the rods). Samples placed between the glass rods were cured by irradiation (500 mW/cm^2), while under LVDT displacement control. Load-displacement data were collected at 200 Hz for 30 mins. […] From the load-displacement data, peak loads were obtained and normalized by the original area to obtain the polymerization stresses.

[3] = Mechanical properties measurement (3-point bend tests)
Description: In this example, the elastic modulus, ultimate strength, and work of fracture were determined for the monomers of the present invention. […] The resin was injected into the mold and cured by irradiation (500 mW/cm^2) followed by storage in the dark for 4 hours and 24 hours before mechanical tests were conducted. Three point bending tests were conducted using an electromagnetic mechanical testing machine (Enduratec Model 3200) with a 20-mm span and at a crosshead displacement rate of 0.5mm/ min at room temperature (25° C.). Load-displacement data were collected at 100 Hz. […] Flexural ultimate strength was determined from the peak loads and work of fracture was determined from the area under the stress-strain curve.

[4] = Oxaspirocyclic ring opening via 13C-NMR; details: 20 min visible light irradiation with PI system
Description: NMR Studies: NMR spectra were acquired using a Bruker Advance Ultrashield FT-NMR spectrometer. A reaction mixture consisting of 6 (DEBTMSPOM-1,5,7,11-TOSU) and the PI system was heated to 55-60° C. to liquefy and then allowed to cool to room temperature. A 300 mg sample was transferred to an 8 mm I.D.×8 mm H cylindrical glass mold and irradiated for 20 min (3 mm; 500 mW/cm^2) using a 3M XL 2500 lamp. A small amount was transferred to an NMR tube, taken up in CDCl3 and the ^13C-NMR spectrum was acquired and compared to the pre-irradiation spectrum. The residual irradiated material was stored in the dark for 24 hr, resampled, and the NMR spectrum acquired and compared to the pre- and post-irradiation spectra.

[5] = 4-hour Post Cure, 10 mol % TOSU in SIL-MIX
[6] = 4-hour Post Cure, 25 mol % TOSU in SIL-MIX
[7] = 24-hour Post Cure, 10 mol % TOSU in SIL-MIX
[8] = 24-hour Post Cure, 25 mol % TOSU in SIL-MIX

## CCC1(COCCC[Si](C)(C)C)COC2(OC1)OCC(CC)(COCCC[Si](C)(C)C)CO2 (stereo not shown) [Monomer 6, 3,9-diethyl-3,9-bis(3-trimethylsilylpropyloxymethyl)-1,5,7,11-tetraoxaspiro[5.5]undecane]
[1]; comonomer 50 mol % in PH-SIL (I)
  Oxirane Conversion: 22%
[1]; comonomer 50 mol % in SIL-MIX
  Oxirane Conversion: 22%
[1]; comonomer 50 mol % in TET-SIL (II)
  Oxirane Conversion: 3%
[2]; 10 mol % TOSU
  polymerization stress values less than SIL-MIX alone: 80%
[2]; 25 mol % TOSU
  polymerization stress values less than SIL-MIX alone: 96%
[2]; SIL-MIX/6 75/25 mol/mol
  Photopolymerization stress: 0.3(0.1) N/mm^2
[2]; SIL-MIX/6 90/10 mol/mol
  Photopolymerization stress: 2.1(0.2) N/mm^2
[3]; 4-h Post Cure, 10 mol % TOSU in SIL-MIX
  Flexural elastic modulus: 1.61 (0.17)^a GPa
[3]; 4-h Post Cure, 25 mol % TOSU in SIL-MIX
  Flexural elastic modulus: 1.33 (0.18)^a GPa
[3]; [5]
  Flexural strength: 58.77 (19.08)^a,b MPa
  Work of Fracture: 2.67 (1.25)^a kJ/m^2
[3]; [6]
  Flexural strength: 30.90 (11.36)^a MPa
  Work of Fracture: 0.73 (0.38)^a kJ/m^2
[3]; 10 mol % TOSU
  24-hour modulus values as % of those for SIL-MIX alone: 77%
  24-hour strength values as % of those for SIL-MIX alone: 84%
  24-hour work of fracture values as % of those for SIL-MIX alone: 100%
[3]; 10 mol % TOSU, listed as TOSU
  24-hour strength values as % of those for SIL-MIX alone: 85%
[3]; 24-h Post Cure, 10 mol % TOSU in SIL-MIX
  Flexural elastic modulus: 2.41 (0.24)^b GPa
[3]; 24-h Post Cure, 25 mol % TOSU in SIL-MIX
  Flexural elastic modulus: 1.87 (0.06)^a GPa
[3]; [7]
  Flexural strength: 76.90 (10.19)^a,b MPa
  Work of Fracture: 3.07 (0.81)^a,b kJ/m^2
[3]; [8]
  Flexural strength: 56.63 (11.11)^a MPa
  Work of Fracture: 1.80 (0.87)^a kJ/m^2
[3]; 25 mol % TOSU
  24-hour modulus values as % of those for SIL-MIX alone: 60%
  24-hour strength values as % of those for SIL-MIX alone: 60%
  24-hour work of fracture values as % of those for SIL-MIX alone: 66%
[4]; 0 hour dark cure
  changes in 13C-NMR spectrum (oxaspirocyclic ring opening): No significant changes
[4]; 24 hour dark cure
  changes in 13C-NMR spectrum (oxaspirocyclic ring opening): consistent with oxaspirocyclic ring opening to form oligomeric carbonate species
